Measurements from PMC3644560 (Journal of the American Chemical Society, 2013).

What was measured:
Aquifex aeolicus IspH = conditions: Aquifex aeolicus enzyme, DT-reduced MV ref 26; cited from earlier work
E. coli IspH [1] = target: T1, E. coli IspH (Escherichia coli, UniProt P62623); experiment: Spectrophotometric IspH assay; assay type: biochemical; conditions: for substrate for IspH (NADPH consumption at 340 nm): 200 μM compound, IspH 0.5 μM, anaerobic, pH 8
E. coli IspH [2] = target: T1, E. coli IspH; experiment: IspH inhibition assay using [3-14C]HMBPP and the NADPH/FpR1/FldA reducing system; assay type: biochemical; conditions: steady-state studies with [3-14C]HMBPP and NADPH/FpR1/FldA
E. coli IspH [3] = target: T1, E. coli IspH; assay type: biochemical
[4] = fit of kapp vs [AMBPP] to Eqn 2, mechanism A, pH 8, 37 °C

T1 sequence (P62623 whole entry): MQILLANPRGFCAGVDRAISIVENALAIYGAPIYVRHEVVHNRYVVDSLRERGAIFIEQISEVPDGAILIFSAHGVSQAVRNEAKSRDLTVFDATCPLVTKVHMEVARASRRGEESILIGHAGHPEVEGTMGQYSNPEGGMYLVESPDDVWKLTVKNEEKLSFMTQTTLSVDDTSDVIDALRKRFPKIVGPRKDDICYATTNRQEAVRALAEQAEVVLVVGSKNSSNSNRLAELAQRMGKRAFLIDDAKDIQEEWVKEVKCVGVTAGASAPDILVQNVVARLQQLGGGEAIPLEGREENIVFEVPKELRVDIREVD

Row | Compound | IC50 (Aquifex aeolicus IspH) | Ki (E. coli IspH [1]) | substrate for IspH (NADPH consumption at 340 nm) (E. coli IspH [1]) | effect of pH on inhibition constant and rate of binding to IspH (E. coli IspH [1]; Figures S5 and S6) | k3 (rate constant of formation of the EI complex) (E. coli IspH [1]; [4]) | k4 (rate constant of dissociation of the EI complex) (E. coli IspH [1]; [4]) | mode of inhibition (E. coli IspH [2]) | IC50 (E. coli IspH [3])
1 | C#CCCOP(=O)(O)OP(=O)(O)O [3-butynyl diphosphate] | 450 nM |  |  |  |  |  |  | 
2 | C/C(=C\COP(=O)(O)OP(=O)(O)O)CN.N.N [AMBPP, (E)-4-Amino-3-methylbut-2-enyl 1-diphosphate bis ammonium salt] |  | 54 ± 19 nM | not substrates for IspH | decrease as pH increases | 41000 M⁻¹ s⁻¹ | 0.0022 s⁻¹ | competitive inhibition was confirmed | 150 ± 20 nM
3 | C/C(=C\COP(=O)(O)OP(=O)(O)O)CS.N.N [TMBPP, (E)-4-Mercapto-3-methyl-but-2-en-1-yl diphosphate bis ammonium salt] |  |  | not substrates for IspH |  |  |  | competitive inhibitor | 210 ± 10 nM
